# Reference: article PMC10174618, “Monoterpenoid aryl hydrocarbon receptor allosteric antagonists protect against ultraviolet skin damage in female mice” (Nature Communications, 2023)
# Experiments:
# Test in all cases: biochemical
# Design in all cases: KINOMEscan scanMAX active site-directed competition binding assay, percent of control, 468 kinases
# Details in all cases: competition binding, percent of control
# [1] = target: SIK2 (Homo sapiens, UniProt Q9H0K1)
# Procedure, shortened: (§1)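 KINOMEscan active site-directed competition binding assay against 468 human kinases with 100 μM S-carvone. Binding expressed as % of control, with 35% of control as the inhibition threshold.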
# [2] = target: T1, ABL1(F317I)-phosphorylated (Homo sapiens, UniProt P00519, F317I)
# T1 construct: phosphorylated
# Procedure, shortened: as §1
# [3] = target: PIK3CA(Q546K) (Homo sapiens, UniProt P42336, Q546K)
# Procedure, shortened: as §1
# [4] = target: EGFR(L858R,T790M) (Homo sapiens, UniProt P00533, L858R/T790M)
# Procedure, shortened: as §1
# [5] = target: T2, MST2 (Homo sapiens, UniProt Q13188)
# T2 construct: gene STK3
# Procedure, shortened: as §1
# [6] = target: CDK4 (Homo sapiens, UniProt P11802)
# Procedure, shortened: as §1
# [7] = target: T3, LKB1 (Homo sapiens, UniProt Q15831)
# T3 construct: gene STK11
# Procedure, shortened: as §1
# [8] = target: BMPR2 (Homo sapiens, UniProt Q13873)
# Procedure, shortened: as §1
# [9] = target: CDKL1 (Homo sapiens, UniProt Q00532)
# Procedure, shortened: as §1
# [10] = target: CSF1R-autoinhibited (Homo sapiens, UniProt P07333)
# Procedure, shortened: as §1
# [11] = target: T4, TIE2 (Homo sapiens, UniProt Q02763)
# T4 construct: gene TEK
# Procedure, shortened: as §1
# [12] = target: CSF1R (Homo sapiens, UniProt P07333)
# Procedure, shortened: as §1
# [13] = target: TLK1 (Homo sapiens, UniProt Q9UKI8)
# Procedure, shortened: as §1
# [14] = target: T5, MEK3 (Homo sapiens, UniProt P46734)
# T5 construct: gene MAP2K3
# Procedure, shortened: as §1
# [15] = target: FLT3(R834Q) (Homo sapiens, UniProt P36888, R834Q)
# Procedure, shortened: as §1
# [16] = target: T6, RSK2(Kin.Dom.2-C-terminal) (Homo sapiens, UniProt P51812)
# T6 construct: gene RPS6KA3; Kin.Dom.2-C-terminal
# Procedure, shortened: as §1
# [17] = target: T7, PCTK2 (Homo sapiens, UniProt Q00537)
# T7 construct: gene CDK17
# Procedure, shortened: as §1
# [18] = target: AKT1 (Homo sapiens, UniProt P31749)
# Procedure, shortened: as §1
# [19] = target: BMPR1A (Homo sapiens, UniProt P36894)
# Procedure, shortened: as §1
# [20] = target: EPHA4 (Homo sapiens, UniProt P54764)
# Procedure, shortened: as §1
# [21] = target: FER (Homo sapiens, UniProt P16591)
# Procedure, shortened: as §1
# Chain of SIK2 (Q9H0K1 whole entry): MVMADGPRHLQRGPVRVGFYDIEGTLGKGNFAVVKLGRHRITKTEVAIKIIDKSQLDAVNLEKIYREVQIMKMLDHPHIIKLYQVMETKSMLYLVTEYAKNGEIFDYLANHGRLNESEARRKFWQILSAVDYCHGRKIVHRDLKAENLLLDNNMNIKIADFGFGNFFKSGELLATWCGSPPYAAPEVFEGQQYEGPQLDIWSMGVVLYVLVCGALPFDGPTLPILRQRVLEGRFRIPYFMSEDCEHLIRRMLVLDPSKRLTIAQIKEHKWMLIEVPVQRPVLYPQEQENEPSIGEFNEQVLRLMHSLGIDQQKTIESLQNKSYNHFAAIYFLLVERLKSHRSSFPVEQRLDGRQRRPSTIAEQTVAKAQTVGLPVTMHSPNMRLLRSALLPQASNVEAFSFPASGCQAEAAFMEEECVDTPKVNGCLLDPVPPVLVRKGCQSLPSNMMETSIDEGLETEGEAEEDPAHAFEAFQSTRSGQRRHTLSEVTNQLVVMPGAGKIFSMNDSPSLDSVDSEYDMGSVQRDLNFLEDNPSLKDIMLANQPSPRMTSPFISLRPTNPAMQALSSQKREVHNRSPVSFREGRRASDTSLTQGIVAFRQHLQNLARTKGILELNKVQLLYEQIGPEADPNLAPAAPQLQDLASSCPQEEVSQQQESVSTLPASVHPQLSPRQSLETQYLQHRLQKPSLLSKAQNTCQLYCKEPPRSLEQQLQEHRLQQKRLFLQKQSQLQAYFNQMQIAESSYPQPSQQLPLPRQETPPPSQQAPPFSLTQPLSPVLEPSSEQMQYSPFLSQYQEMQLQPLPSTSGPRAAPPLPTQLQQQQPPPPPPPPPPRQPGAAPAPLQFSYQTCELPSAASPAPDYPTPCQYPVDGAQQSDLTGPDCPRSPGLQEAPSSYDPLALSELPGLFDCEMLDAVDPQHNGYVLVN
# T3 sequence (Q15831 whole entry): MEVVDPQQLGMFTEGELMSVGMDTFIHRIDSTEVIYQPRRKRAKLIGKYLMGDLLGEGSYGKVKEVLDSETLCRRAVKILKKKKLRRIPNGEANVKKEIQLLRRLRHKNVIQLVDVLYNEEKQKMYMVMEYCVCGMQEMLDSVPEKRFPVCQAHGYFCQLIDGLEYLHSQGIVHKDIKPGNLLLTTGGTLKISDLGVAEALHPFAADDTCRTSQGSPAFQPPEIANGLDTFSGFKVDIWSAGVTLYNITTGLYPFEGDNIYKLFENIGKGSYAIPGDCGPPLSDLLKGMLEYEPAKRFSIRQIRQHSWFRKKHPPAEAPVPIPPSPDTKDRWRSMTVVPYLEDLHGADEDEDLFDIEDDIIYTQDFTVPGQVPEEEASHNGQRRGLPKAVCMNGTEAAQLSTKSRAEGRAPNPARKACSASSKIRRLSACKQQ
# T4 sequence (Q02763 whole entry): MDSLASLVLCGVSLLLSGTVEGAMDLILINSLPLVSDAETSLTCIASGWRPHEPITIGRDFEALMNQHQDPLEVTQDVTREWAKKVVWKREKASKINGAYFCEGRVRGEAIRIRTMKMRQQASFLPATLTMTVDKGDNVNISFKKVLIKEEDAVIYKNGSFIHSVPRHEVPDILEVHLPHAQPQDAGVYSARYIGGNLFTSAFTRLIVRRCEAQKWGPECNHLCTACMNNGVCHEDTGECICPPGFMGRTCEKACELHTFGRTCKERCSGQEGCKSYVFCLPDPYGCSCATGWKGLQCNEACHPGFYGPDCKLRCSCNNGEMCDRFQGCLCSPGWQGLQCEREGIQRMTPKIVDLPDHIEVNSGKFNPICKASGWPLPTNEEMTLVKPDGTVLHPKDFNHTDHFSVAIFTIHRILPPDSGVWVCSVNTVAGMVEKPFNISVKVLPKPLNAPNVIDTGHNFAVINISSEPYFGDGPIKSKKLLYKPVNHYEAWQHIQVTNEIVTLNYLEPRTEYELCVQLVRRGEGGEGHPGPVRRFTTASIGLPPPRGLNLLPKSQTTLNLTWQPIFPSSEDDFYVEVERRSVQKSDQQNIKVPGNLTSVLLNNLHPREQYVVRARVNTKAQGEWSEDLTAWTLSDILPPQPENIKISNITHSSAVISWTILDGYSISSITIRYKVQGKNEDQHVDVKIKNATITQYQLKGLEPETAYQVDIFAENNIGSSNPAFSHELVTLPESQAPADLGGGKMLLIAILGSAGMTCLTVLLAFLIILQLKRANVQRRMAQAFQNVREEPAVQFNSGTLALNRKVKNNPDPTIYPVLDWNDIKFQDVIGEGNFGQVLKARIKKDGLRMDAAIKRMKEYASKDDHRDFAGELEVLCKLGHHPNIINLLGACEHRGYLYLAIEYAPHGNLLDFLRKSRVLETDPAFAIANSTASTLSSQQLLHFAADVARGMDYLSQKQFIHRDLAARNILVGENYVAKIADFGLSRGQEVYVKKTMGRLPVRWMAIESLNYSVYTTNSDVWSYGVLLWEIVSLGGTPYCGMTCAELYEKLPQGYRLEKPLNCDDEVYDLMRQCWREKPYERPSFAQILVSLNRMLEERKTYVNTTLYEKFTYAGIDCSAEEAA
# Chain of EPHA4 (P54764 whole entry): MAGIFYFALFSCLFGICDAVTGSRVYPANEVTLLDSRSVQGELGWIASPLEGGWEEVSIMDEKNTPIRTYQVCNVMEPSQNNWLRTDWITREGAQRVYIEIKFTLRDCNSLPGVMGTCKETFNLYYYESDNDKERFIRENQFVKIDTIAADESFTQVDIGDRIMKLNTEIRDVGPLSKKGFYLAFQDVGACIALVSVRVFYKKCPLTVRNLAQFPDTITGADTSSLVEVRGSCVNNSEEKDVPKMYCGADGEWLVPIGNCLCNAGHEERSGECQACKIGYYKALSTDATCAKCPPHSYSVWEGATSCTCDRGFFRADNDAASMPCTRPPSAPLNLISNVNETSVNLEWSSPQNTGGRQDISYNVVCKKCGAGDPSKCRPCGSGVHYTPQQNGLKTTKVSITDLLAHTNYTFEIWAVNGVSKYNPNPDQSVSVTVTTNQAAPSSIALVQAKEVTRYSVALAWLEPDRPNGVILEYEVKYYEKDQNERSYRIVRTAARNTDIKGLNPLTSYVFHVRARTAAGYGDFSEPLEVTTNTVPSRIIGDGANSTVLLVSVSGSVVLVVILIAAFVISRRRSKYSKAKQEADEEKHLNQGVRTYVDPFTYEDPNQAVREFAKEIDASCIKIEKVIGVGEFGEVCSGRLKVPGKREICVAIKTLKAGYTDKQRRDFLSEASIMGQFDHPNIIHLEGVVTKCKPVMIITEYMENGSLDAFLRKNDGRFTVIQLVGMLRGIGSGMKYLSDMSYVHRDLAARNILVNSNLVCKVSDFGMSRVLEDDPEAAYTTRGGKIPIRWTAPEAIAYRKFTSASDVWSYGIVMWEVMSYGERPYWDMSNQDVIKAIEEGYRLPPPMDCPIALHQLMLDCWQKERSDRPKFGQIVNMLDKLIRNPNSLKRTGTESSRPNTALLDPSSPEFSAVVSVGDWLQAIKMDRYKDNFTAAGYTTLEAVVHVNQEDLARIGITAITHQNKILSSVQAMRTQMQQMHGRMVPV
# T2 sequence (Q13188 whole entry): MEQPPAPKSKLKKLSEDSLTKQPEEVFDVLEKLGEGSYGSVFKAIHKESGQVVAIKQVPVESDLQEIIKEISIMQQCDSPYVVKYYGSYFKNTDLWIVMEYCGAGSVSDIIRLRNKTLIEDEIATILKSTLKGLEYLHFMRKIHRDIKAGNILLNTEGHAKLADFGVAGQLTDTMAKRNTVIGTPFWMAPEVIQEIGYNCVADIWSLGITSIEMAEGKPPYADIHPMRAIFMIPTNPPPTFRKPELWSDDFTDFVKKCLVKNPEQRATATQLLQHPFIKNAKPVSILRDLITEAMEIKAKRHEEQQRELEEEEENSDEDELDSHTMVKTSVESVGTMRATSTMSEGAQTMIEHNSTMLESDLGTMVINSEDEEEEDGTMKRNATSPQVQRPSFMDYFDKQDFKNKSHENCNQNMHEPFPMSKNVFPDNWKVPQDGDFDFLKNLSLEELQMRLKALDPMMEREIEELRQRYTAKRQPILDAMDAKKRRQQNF
# Chain of BMPR2 (Q13873 whole entry): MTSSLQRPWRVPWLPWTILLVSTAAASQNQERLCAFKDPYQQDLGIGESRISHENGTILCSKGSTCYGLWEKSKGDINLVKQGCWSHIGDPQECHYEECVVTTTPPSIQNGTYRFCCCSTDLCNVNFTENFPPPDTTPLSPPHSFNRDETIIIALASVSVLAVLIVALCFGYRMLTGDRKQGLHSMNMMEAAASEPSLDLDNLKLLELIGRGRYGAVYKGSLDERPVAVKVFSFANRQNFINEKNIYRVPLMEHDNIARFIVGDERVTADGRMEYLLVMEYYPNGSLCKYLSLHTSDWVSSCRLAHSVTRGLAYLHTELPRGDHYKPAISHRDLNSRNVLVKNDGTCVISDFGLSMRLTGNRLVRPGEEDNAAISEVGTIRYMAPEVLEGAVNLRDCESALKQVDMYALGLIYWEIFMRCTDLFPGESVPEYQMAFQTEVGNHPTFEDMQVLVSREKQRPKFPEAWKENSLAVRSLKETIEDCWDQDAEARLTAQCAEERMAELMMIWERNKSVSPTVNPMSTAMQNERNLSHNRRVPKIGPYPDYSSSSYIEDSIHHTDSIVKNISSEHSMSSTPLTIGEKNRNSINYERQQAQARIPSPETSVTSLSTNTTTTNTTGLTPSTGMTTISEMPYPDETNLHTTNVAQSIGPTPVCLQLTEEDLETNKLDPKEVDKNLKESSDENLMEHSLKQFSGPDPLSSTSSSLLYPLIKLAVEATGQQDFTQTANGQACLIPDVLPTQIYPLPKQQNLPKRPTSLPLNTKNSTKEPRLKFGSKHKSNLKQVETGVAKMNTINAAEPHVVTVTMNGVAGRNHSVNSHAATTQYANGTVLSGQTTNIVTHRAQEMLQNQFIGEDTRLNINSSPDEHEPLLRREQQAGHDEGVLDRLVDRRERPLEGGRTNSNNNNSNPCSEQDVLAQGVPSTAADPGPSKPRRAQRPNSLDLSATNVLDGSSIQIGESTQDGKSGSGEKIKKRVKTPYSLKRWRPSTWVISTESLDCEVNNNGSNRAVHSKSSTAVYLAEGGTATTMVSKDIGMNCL
smiles,measurement,setting,value
C=C(C)[C@H]1CC=C(C)C(=O)C1 [S-carvone],remaining binding at 100 µM,[1],76%
same,remaining binding at 100 µM,[2],97%
same,remaining binding at 100 µM,[3],83%
same,remaining binding at 100 µM,[4],60%
same,remaining binding at 100 µM,[5],65%
same,remaining binding at 100 µM,[6],71%
same,remaining binding at 100 µM,[7],50%
same,remaining binding at 100 µM,[8],79%
same,remaining binding at 100 µM,[9],70%
same,remaining binding at 100 µM,[10],73%
same,remaining binding at 100 µM,[11],84%
same,remaining binding at 100 µM,[12],86%
same,remaining binding at 100 µM,[13],59%
same,remaining binding at 100 µM,[14],84%
same,remaining binding at 100 µM,[15],83%
same,remaining binding at 100 µM,[16],67%
same,remaining binding at 100 µM,[17],97%
same,remaining binding at 100 µM,[18],84%
same,remaining binding at 100 µM,[19],92%
same,remaining binding at 100 µM,[20],84%
same,remaining binding at 100 µM,[21],75%
